Patent US8822377B2, “Herbicidal compositions comprising topramezone and pinoxaden” (BASF SE, priority 2011, dated 2014)

Assays:
[1] = system: HORVW (winter barley) Highlight; test: Greenhouse post-emergence crop damage rating, winter barley; settings: topramezone 12 g a.i./ha
Protocol: (§1) The culture containers used were plastic pots containing loamy sand with approximately 3.0% of humus as substrate. The seeds of the test plants were sown separately for each species.
(§2) In all use examples, plants were grown in a greenhouse environment.
(§3) To this end, the test plants were either sown directly and grown in the same containers, or they were first grown separately as seedlings and transplanted into the test containers a few days prior to treatment.
(§4) Depending on the species, the plants were kept at 10-25° C. and 20-35° C., respectively. The test period extended over 1 to 4 weeks. During this time, the plants were tended and their response to the individual treatments was evaluated.
(§5) Topramezone was used as a commercial suspension concentrate (Clio® of BASF SE) having an active ingredient concentration of 336 g/l.
(§6) The evaluation for the damage caused by the chemical compositions was carried out using a scale from 0 to 100%, compared to the untreated control plants. Here, 0 means no damage and 100 means complete destruction of the plants.

[2] = system: TRZAW (winter wheat) Cubus; test: Greenhouse post-emergence crop damage rating, winter wheat; settings: topramezone 12 g a.i./ha, 0=no damage, 100=complete destruction
Protocol: as §1, §2, §3, §4, §5, §6

TRZAS Taifun = test: Greenhouse post-emergence crop damage rating, wheat TRZAS; settings: topramezone 12 g a.i./ha
Protocol: as §1, §2, §3, §4, §5, §6

GALAP (cleaver) = test: Greenhouse post-emergence herbicidal activity against cleaver; format: in vivo; settings: Galium aparine, 648 h, topramezone 12 g a.i./ha, read-out: Herbicidal activity (%) at 27 DAT Observed GALAP GS22
Excerpt: (§7) The test period extended over 1 to 4 weeks.
(§8) 22 ff. E=X+Y−(X·Y/100) where • X=effect in percent using herbicide A at an application rate a; • Y=effect in percent using pinoxaden (herbicide B) at application rate b or a combination of pinoxaden and safener C at application rates b and c; • E=expected effect (in %) of A+B at application rates a+b or of A+B+C at application rates a+b+c.
(§9) The value E corresponds to the effect (plant damage or injury) which is to be expected if the activity of the individual compounds is just additive. If the observed effect is higher than the value E calculated according to Colby, a synergistic effect is present.

VERPE (field speedwell) = test: Greenhouse post-emergence herbicidal activity against field speedwell; format: in vivo; settings: Veronica persica, 648 h, topramezone 12 g a.i./ha, read-out: Herbicidal activity (%) at 27 DAT Observed VERPE GS22
Excerpt: as §7, §8, §9

## Cc1c(C(=O)c2cnn(C)c2O)ccc(S(C)(=O)=O)c1C1=NOCC1 [Topramezone, [3-(4,5-dihydro-1,2-oxazol-3-yl)-4-mesyl-o-tolyl](5-hydroxy-1-methylpyrazol-4-yl)methanone]
[1]
  Herbicidal activity (%) at 27 DAT HORVW Highlight GS11: 20%
[2]
  Herbicidal activity (%) at 27 DAT TRZAW Cubus GS12: 20%
TRZAS Taifun
  Herbicidal activity (%) at 27 DAT TRZAS Taifun GS11: 30%
GALAP (cleaver)
  inhibition at 12 g/ha: 90%
VERPE (field speedwell)
  inhibition at 12 g/ha: 75%
